Assay results taken from patent publication EP2832347B1, “Method for identifying patchouli odorant materials” (Takasago International Corporation, priority 2013, dated 2015).
“And” between values parts separate entries of the source, which are not always exact repeats. Identical values can stand only once. Like-named read-outs stand apart in the source and are kept apart here. Values belong to the compound of their own block, whether it stands above or below them.

Assays:
OR11A1 [1] = biological target: T1, OR11A1 (Homo sapiens, UniProt Q9GZK7); conditions: Adipietro et al., PLoS Genet. 2012; cited from earlier work
T1 construct: expressed in transfected cells; host or cells: HEKOlf (HEK293 stably expressing human Galpha-olf and bovine CNGA2)
T1 sequence (Q9GZK7 1-315): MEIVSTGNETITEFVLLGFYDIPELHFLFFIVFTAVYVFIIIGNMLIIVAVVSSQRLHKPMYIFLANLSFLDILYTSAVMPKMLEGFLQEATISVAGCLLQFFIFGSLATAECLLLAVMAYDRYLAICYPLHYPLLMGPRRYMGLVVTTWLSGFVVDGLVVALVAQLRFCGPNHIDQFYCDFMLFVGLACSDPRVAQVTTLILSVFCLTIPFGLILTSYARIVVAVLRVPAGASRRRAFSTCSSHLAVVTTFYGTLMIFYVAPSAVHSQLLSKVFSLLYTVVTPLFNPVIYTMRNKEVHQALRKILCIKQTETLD

[2] = tested on: seven other OR11A1-related olfactory receptors; test: CRE-luciferase reporter assay on OR11A1 related receptors; assay type: cell-based, human; conditions: 10/30/100 µM
Procedure: (§1) The experiments were performed using a HEK293 cell line (deposited at the ATCC under accession n° CRL-1573) stably expressing the Gαolf G-protein and the cyclic nucleotide gated ion channel A2 subunit (CNGA2) (herein called HEKOlf). As described by Shirokova et al., 2005, the human Gαolf cDNA was cloned into the mammalian expression vector pPuro and cDNA for the bovine cyclic nucleotide gated ion channel A2 (CNGA2) subunit was cloned into the mammalian expression vector pcDNA3. Both constructs were transfected using Lipofectamine2000 (Invitrogen) following the manufacturer's instructions. Cellular clones stably expressing Gαolf and CNGA2 were obtained by antibiotic selection with 0.5µg/ml Puromycin and 200µg/ml Geneticin.
(§2) All transient transfections were performed with Lipofectamine 2000 (Invitrogen) according to the manufacturer's protocol. 10µl Lipofectamine 2000 were diluted in 500 µl DMEM and incubated for 5 minutes at room temperature. At the same time, 3µg of plasmid DNA were diluted in 500µl DMEM and added to the Lipofectamine 2000 mix to obtain a final volume of 1000µl. After incubation for a further 30 minutes at room temperature, the DNA-Lipofectamine complex was added to 1000µl of a cell suspension containing 1.600.000 cells/ml. Subsequently, 25µl per well of the complete mixture were seeded in black 384 well polystyrene assay plates. 25µl DMEM containing 20% FBS were added to each well 3 hours post-transfection.
(§3) The cDNAs for all olfactory receptors and an empty control vector were co-transfected with pGL4.29 (Promega). The pGL4.29 vector contains a cyclic adenosine monophosphate (cAMP) response element (CRE) that drives the transcription of the luciferase reporter gene luc2P (Photinus pyralis). luc2P is a synthetically-derived luciferase sequence with humanized codon optimization that is designed for high expression and reduced anomalous transcription.
In this assay, the interaction of an odorant with its cognate olfactory receptor leads to the activation of the human Gαolf G-protein. Gαolf is a stimulatory G-protein (Gαs) and activates adenylate cyclase, which converts adenosine triphosphate (ATP) into cAMP. Therefore, the activity of the transcribed luciferase can be used as an indication of olfactory receptor activation. […] The cells were then transferred into an automated fluorometric imaging plate reader (FLIPR^TETRA, Molecular Devices). […]
(§4) The data obtained from different well replicates were analyzed with Excel, ScreenWorks, and SigmaPlot 10. […] The mean and standard deviation of the resulting fold of change values were calculated and plotted in vertical bar charts or concentration-response curves fitted by the SigmaPlot 10 software. […]

OR11L1 = biological target: T2, OR11L1 (Homo sapiens, UniProt Q8NGX0); test: CRE-luciferase reporter assay in HEKOlf cells transiently transfected with OR11L1; assay type: cell-based; conditions: Example 3; 10/30/100 µM
T2 construct: expressed in transfected cells; host or cells: HEKOlf (HEK293 stably expressing human Galpha-olf and bovine CNGA2)
T2 sequence (Q8NGX0 1-322): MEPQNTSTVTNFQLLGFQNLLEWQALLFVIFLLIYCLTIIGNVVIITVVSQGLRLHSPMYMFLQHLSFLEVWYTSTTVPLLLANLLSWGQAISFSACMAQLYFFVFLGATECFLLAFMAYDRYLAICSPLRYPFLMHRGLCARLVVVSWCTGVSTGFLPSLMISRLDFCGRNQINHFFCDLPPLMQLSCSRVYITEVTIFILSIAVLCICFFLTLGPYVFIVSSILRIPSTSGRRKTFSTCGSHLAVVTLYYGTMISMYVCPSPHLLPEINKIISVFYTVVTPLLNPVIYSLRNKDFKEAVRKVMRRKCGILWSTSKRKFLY
Procedure: as §1
All odorants were stored in the dark at 4°C upon delivery. […]
(§5) In this assay, the interaction of an odorant with its cognate olfactory receptor leads to the activation of the human Gαolf G-protein. […] The cells were then transferred into an automated fluorometric imaging plate reader (FLIPR^TETRA, Molecular Devices). […]
as §4

OR11A1 [3] = biological target: T1, OR11A1; test: CRE-luciferase reporter assay in HEKOlf cells transiently transfected with OR11A1; assay type: cell-based; conditions: for EC50: Example 4, Table 5, 0.03-100 µM tested; for Potency and efficacy on OR11A1 (comparison between odorants): 0.1 to 100 µM (Figure 6)
Procedure: as §1
All odorants were stored in the dark at 4°C upon delivery. They were prepared at 100mM stock solutions using DMSO as a solvent and stored at -20°C. On the day of the experiment the different stock solutions were directly diluted in the assay buffer (Tyrode's buffer) having the following composition: 5mM KCI, 130mM NaCl, 2mM CaCl2, 5mM NaHCO3, 1mM MgCl2, 20mM HEPES, pH7.4.
as §2, §3
In this assay, the interaction of an odorant with its cognate olfactory receptor leads to the activation of the human Gαolf G-protein. Gαolf is a stimulatory G-protein (Gαs) and activates adenylate cyclase, which converts adenosine triphosphate (ATP) into cAMP. Therefore, the activity of the transcribed luciferase can be used as an indication of olfactory receptor activation. 24 hours post-transfection the medium was removed from the transfected cells and 30 µl Tyrode's buffer containing the diluted odorants were added and incubated for 6 hours at 37°C. The cells were then transferred into an automated fluorometric imaging plate reader (FLIPR^TETRA, Molecular Devices). Subsequently, 25µl of a mixture composed of Triton X-100 and luciferin (1:1) were added. The addition of this mixture led to cell lyses and allowed interaction of the luciferase with its substrate luciferin resulting in a detectable emission of light.
The data obtained from different well replicates were analyzed with Excel, ScreenWorks, and SigmaPlot 10. The responses of each receptor to the odorants were divided by the mean responses of the receptor towards Tyrode's buffer (fold of change FOC1). The specificity of FOC1 was checked by comparing with a second FOC (FOC2) obtained by stimulating a control sample, consisting in an empty expression vector, with the same odorants and Tyrode's buffer. The mean and standard deviation of the resulting fold of change values were calculated and plotted in vertical bar charts or concentration-response curves fitted by the SigmaPlot 10 software.

[4] = Long-lasting analysis on scent strip (GC-MS with internal standard); assay type: physicochemical; conditions: for POG (GC-MS signal), sample 1-3 / Ratio POG/IS, sample 1-3: individual scent strips, listed as POG
Procedure: In one embodiment, the long-lasting analysis is carried out as follows: 50 µl of a 1 % solution of the identified candidate to be tested in alcohol, preferably ethanol, are applied on a scent strip, preferably a cellulosic scent strip, to be dosed. The strip is allowed to dry under ambient laboratory conditions, with normal room air movement, in particular no fan, heating or any mean or device to accelerate evaporation. After different times, each strip or at least the part of the scent strip including the area where the solution of the identified candidate to be tested was applied is extracted using 3 ml of alcohol, preferably ethanol, containing an internal standard, such as methyl decanoate. The extracts are then analyzed by gas chromatography and the result is normalized for the principal molecular ion of the identified candidate using the value for the internal standard.
50 µl of a 1 % solution of patchouli alcohol in ethanol was added by pipette to the tip to a series of different scent strips (SARL H. GRANGER-VEYRON, Privas, France). The strips were allowed to dry under ambient laboratory conditions.
After different times (t0, t0+1hour, t0+2hours, t0+4hours, t0+8hours) the tip of a strip where the 50 µl of the solution of the tested material had been applied was cut and put in a 30 ml bottle and extracted using 3 ml of ethanol, containing 50 µl of methyl decanoate as internal standard (10000 ppm solution in cyclohexane), added to each bottle. Care was taken to ensure the entire area around the point of application was included in the area that was cut and extracted. The content of the bottles was mixed for 30 min on a roller bed, and 2 ml vials were then filled with each sample.
Samples were triplicated, i.e. 3 scent strip tips were analysed for each time point.
In a first series of experiments, samples taken at t0, t0+1hour and t0+2hours were analyzed by GC-MS on a […] gas chromatography column (column BC-WAX (50m * 0.25mm * 0.15µm) which is a GC Sciences column supplied by Interchim, Montluçon, France).
In a second series of experiments, samples taken at t0, t0+4hours and t0+8hours were analyzed by GC-MS on a non-polar gas chromatography column (HP-5MS UI (30m * 0.25mm * 0.25µm) which is an Agilent column supplied by Chromoptic, Courtaboeuf, France).
In Tables 6-11, PA stands for patchouli alcohol and IS stands for the internal standard, i.e. methyl decanoate. When plotting the residual concentration of patchouli on the scent strip as a function of time, the mean ratio at t0 was normalized to 100 and then t0+1h, t0+2h, t0+4h and t0+8h were calculated; t0 being defined as 2 minutes after dosing the 50 µl of the solution of the tested material, which was applied towards the tip of the scent strip.
A "long-lasting" analysis of pogostone was performed as described in Example 5 with samples taken at t0, t0+1hour and t0+2hours.
In Tables 12-14 herebelow, POG stands for pogostone and IS stands for the internal standard, i.e. methyl decanoate. The mean ratio at t0 was normalized as described in Example 5.

OR7D4 = biological target: T3, OR7D4 (Homo sapiens, UniProt Q8NG98); test: CRE-luciferase reporter assay, positive control receptor OR7D4; assay type: cell-based; conditions: 10 µM
T3 construct: expressed in transfected cells; host or cells: HEKOlf (HEK293 stably expressing human Galpha-olf and bovine CNGA2)
T3 sequence (Q8NG98 1-312): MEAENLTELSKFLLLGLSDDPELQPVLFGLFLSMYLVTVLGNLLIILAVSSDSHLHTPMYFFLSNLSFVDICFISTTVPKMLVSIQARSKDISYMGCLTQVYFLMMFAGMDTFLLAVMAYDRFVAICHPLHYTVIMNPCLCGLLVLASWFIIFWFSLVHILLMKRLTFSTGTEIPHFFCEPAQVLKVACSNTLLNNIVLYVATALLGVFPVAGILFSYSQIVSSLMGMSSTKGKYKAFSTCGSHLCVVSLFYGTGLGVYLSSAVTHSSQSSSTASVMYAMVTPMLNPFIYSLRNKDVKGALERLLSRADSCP
Procedure: as §1
All transient transfections were performed with Lipofectamine 2000 (Invitrogen) according to the manufacturer's protocol. […]
as §5, §4

[5] = tested on: 65 human olfactory receptors; test: Screening against the set of 65 human olfactory receptors (CRE-luciferase); assay type: cell-based; conditions: 10 µM; including negative control receptor hTAS2R16
Procedure: as §1, with “Geneticin. […]” for “Geneticin.”
as §5, §4

[6] = Example 4, 3, 10 and 30 µM (Figure 5)

Compound: CCC1(O)C2(C)CCC(C2)C1(C)C (stereo not shown) [2-ethylfenchol]
activation of OR11A1 (OR11A1 [1]): activation of OR11A1

Compound: CC1(C)C2CCC3(C)C4C(CCC13O)C24 (stereo not shown) [Patcho 315, 6a,7,7-trimethyldecahydro-1,4-methanocyclopropa[de]naphtalen-1-ol]
fold of change ([2]; Example 3, figure 4): around 1
response of seven other OR11A1-related olfactory receptors ([2]; Example 3): none of the seven other OR11A1-related olfactory receptors responded
response in cells transfected with OR11L1 (OR11L1): unable to elicit a detectable response
activation of OR11A1 (OR11A1 [3]; Example 3, 10/30/100 µM): strongly activated
EC50 (OR11A1 [3]): 2.9 ± 0.9 µM
Potency and efficacy on OR11A1 (comparison between odorants) (OR11A1 [3]; Example 4): highest
activation of OR11A1 (OR11A1 [3]; [6]): strongly activated

retained initial concentration ([4]; after 1 hour on scent strip): at least 10%
POG (GC-MS signal), mean value ([4]; t0): 1.11E+06
Ratio POG/IS, mean value ([4]; t0): 2.61E-01
POG (GC-MS signal), mean value ([4]; t0+1h): 9.55E+05
Ratio POG/IS, mean value ([4]; t0+1h): 2.08E-01
POG (GC-MS signal), sample 1-3 ([4]; t0+1h): 1.05E+06 and 9.11E+05 and 9.09E+05
Ratio POG/IS, sample 1-3 ([4]; t0+1h): 2.22E-01 and 1.98E-01 and 2.03E-01
POG (GC-MS signal), mean value ([4]; t0+2h): 8.34E+05
Ratio POG/IS, mean value ([4]; t0+2h): 1.82E-01
POG (GC-MS signal), sample 1-3 ([4]; t0+2h): 8.11E+05 and 8.75E+05 and 8.15E+05
Ratio POG/IS, sample 1-3 ([4]; t0+2h): 1.75E-01 and 1.87E-01 and 1.85E-01
POG (GC-MS signal), sample 1-3 ([4]; t0): 1.17E+06 and 1.06E+06 and 1.09E+06
Ratio POG/IS, sample 1-3 ([4]; t0): 2.92E-01 and 2.45E-01 and 2.48E-01
EC50 (OR11A1 [3]): 14.8 ± 3.3 µM
Potency and efficacy on OR11A1 (comparison between odorants) (OR11A1 [3]; Example 4): comparable
activation of OR11A1 (OR11A1 [3]; [6]): able to elicit activation
Compound: Cc1cc(O)c(C(=O)CCC(C)C)c(=O)o1 [Pogostone, pogostone]

activation of OR11A1 (OR11A1 [3]; Example 4, up to 100µM): did not activate
Compound: CC1(C)CCC[C@]2(O)C(C)(C)[C@H]3CC[C@@]12C3 [Terranol, terranol]

activation of OR11A1 (OR11A1 [3]; Example 4, up to 100µM): did not activate
Compound: CC1CCC2C(C)(C)C3CC12CC1OC13C (stereo not shown) [andrane]

Compound: C[C@]12CCC(=O)C[C@@H]1CC[C@@H]1[C@@H]2CC[C@]2(C)C=CC[C@@H]12 [androstenone]
activation of OR7D4 (OR7D4): robustly activated
response of the 65 olfactory receptors tested [5]: did not respond

EC50 (OR11A1 [3]): 10.7 ± 2.6 µM
Potency and efficacy on OR11A1 (comparison between odorants) (OR11A1 [3]; Example 4): comparable
activation of OR11A1 (OR11A1 [3]; [6]): able to elicit activation
Compound: norpatchouli alcohol
